{
  "source": "patent US11622942B2",
  "about": "“Benzene-1,3,5-tricarboxamide derived ester lipids and uses thereof” (Ohio State Innovation Foundation, priority 2017, dated 2023)",
  "system": "Hep3B cells",
  "assay": "LLNs-mediated luciferase transfection assay (FLuc mRNA delivery)",
  "format": "cell-based, human",
  "details": "FLuc mRNA-loaded LLNs, 6 h transfection, normalized to TT3 (FIG. 1)",
  "method": "The synthesized compounds were formulated with 1,2-dioleoyl-sn-glycero-3-phosphoethanolamine (DOPE), cholesterol, and mRNA. The formulated nanoparticles were evaluated with a luciferase expression assay.\nBenzene-1,3,5-tricarbonyl trichloride (12) was reacted with Boc-protected diamine (13) in order to produce the intermediates (14) (Broaders, K. E. et. al. Chem. Commun. (Cambridge, U. K.) 2011, 47, 665-667). Deprotection of (14) gave compound (11), which underwent reductive amination to afford the desired products compounds #1 to #10 (See Dong, Y. et. al. Proc. Natl. Acad. Sci. U.S.A 2014, 111, 3955-3960). The structures of compounds #1 to #10 were confirmed by ^1H NMR spectroscopy (See FIGS. 12-21) and mass spectrometry (See FIGS. 2-11). […] Meanwhile, particle properties (including size, zeta potential, and entrapment efficiency) are measured using a dynamic light-scattering instrument and a ribogreen assay (Love Kevin, T. et. al. Proc. Nat. Acad. Sci. U.S.A 2010, 107, 1864-1869; Chen, D. et. al. J. Am. Chem. Soc. 2012, 134, 6948-6951).\nNext, delivery efficiency and cytotoxicity of compounds #1 to #10 (LLNs-FLuc mRNA) was evaluated in Hep3B cells, a human hepatoma cell line. […]",
  "data": [
    {"molecule": "CCCCC(CCC)OC(=O)CCCCCCCCN(CCCCCCCCC(=O)OC(CCC)CCCC)CCCNC(=O)c1cc(C(=O)NCCCN(CCCCCCCCC(=O)OC(CCC)CCCC)CCCCCCCCC(=O)OC(CCC)CCCC)cc(C(=O)NCCCN(CCCCCCCCC(=O)OC(CCC)CCCC)CCCCCCCCC(=O)OC(CCC)CCCC)c1", "note": "(stereo not shown) [Compound 10]", "values": [
      {"measurement": "expression of the firefly luciferase", "value": "highest expression"}
    ]}
  ]
}
